Assay [1] has as its target T1, complex of human CDK4 and cyclin D3 (Homo sapiens, UniProt P11802).
T1 construct: made in house; host or cells: insect cells, co-infected with baculovirus
Put plainly: Inhibition of CDK4/cyclin D retinoblastoma kinase activity (D-type cyclin is D3). The settings on record: superscript a: D-type cyclin is D3; apparent Ki; read-out: Ki CDK 4/D. The class given is biochemical. The procedure, abridged:
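Apparent Ki derived by fitting background-corrected activity to competitive (or, for tight binders, competitive tight-binding) equations with measured ATP Km. Rb phosphorylation by radiolabelled ATP was measured at 30°C, 20 min standard or 60 min at 5 nM complex for tight binders, via nitrocellulose capture and phosphorimager.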

Assay [2] concerns the target T2, CDK2/cyclin A (Homo sapiens, UniProt P24941).
T2 construct: made in house; host or cells: CDK2: insect cells (baculovirus); cyclin A: E. coli, then limited proteolysis
Briefly: Inhibition of CDK2/cyclin A retinoblastoma kinase activity. The class given is biochemical. Conditions: read-out: Ki CDK 2/A. The method in brief: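 Baculovirus-expressed CDK2 with excess proteolyzed cyclin A (or purified complex), 150 nM or 5 nM, phosphorylating an Rb fragment with 25 μM [32/33P]ATP, pH 7.4, 30° C, 20 min. Filter-captured radioactivity by phosphorimager; apparent Ki from fits to competitive or tight-binding competitive inhibition using measured ATP Km.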

The target in assay [3] is T3, human CDK1 (cdc2) and cyclin B (Homo sapiens, UniProt P06493).
T3 construct: purchased New England Biolabs (Beverly Mass.)
Put plainly: Inhibition of CDK1(cdc2)/cyclin B histone H1 kinase activity. In kind it is biochemical. Conditions: read-out: Ki CDK 1/B. On the procedure: Cyclin-dependent kinase activity was measured by quantifying the enzyme-catalyzed, time-dependent incorporation of radioactive phosphate from [^32P]ATP or [^33P]ATP into a protein substrate. Unless noted otherwise, assays were performed in 96-well plates in a total volume of 50 μL, in the presence of 10 mM HEPES (N-[2-hydroxyethyl]piperazine-N′-[2-ethanesulfonic acid]) (pH 7.4), 10 mM MgCl2, 25 μM adenosine triphosphate (ATP), 1 mg/mL ovalbumin, 5 μg/mL leupeptin, 1 mM dithiothreitol, 10 mM β-glycerophosphate, 0.1 mM sodium vanadate, 1 mM sodium fluoride, 2.5 mM ethylene glycol-bis(β-aminoethyl ether)-N,N,N′N′-tetraacetic acid (EGTA), 2% (v/v) dimethylsulfoxide, and 0.03-0.4 μCi [^32/33P]ATP per reaction. Reactions were initiated with enzyme, incubated at 30° C., and terminated after 20 minutes by the addition of ethylenediaminetetraacetic acid (EDTA) to 250 mM. The phosphorylated substrate was then captured on a nitrocellulose or phosphocellulose membrane using a 96-well filtration manifold, and unincorporated radioactivity was removed by repeated washing with 0.85% phosphoric acid. Radioactivity was quantified by exposing the dried membranes to a phosphorimager.
Apparent Ki values were measured by assaying enzyme activity in the presence of different inhibitor compound concentrations and subtracting the background radioactivity measured in the absence of enzyme. The kinetic parameters (kcat, Km for ATP) were measured for each enzyme under the usual assay conditions by determining the dependence of initial rates on ATP concentration. Inhibition data were fit to an equation for competitive inhibition using Kaleidagraph (Synergy Software), or were fit to an equation for competitive tight-binding inhibition using the software KineTic (BioKin, Ltd.).
The complex of human CDK1 (cdc2) and cyclin B was purchased from New England Biolabs (Beverly Mass.). Alternatively, a CDK1/glutathione-S-transferase-cyclin B1 complex was purified using glutathione affinity chromatography from insect cells that had been co-infected with the corresponding baculovirus expression vectors. The assay was executed as described above at 30° C. using 2.5 units of cdc2/cyclin B, 10 μg Histone H1 protein, and 0.1-0.3 μCi [^32/33P]ATP per assay. Phosphorylated histone substrate was captured by microfiltration on a phosphocellulose P81 membrane and quantified using a phosphorimager as described above. Ki values were measured using the described curve-fitting programs.

In assay [4] the test system is HCT116. Put plainly: Inhibition of cell growth, MTT assay, HCT116. The class given is cell-based, human. Conditions: Homo sapiens; for inhibition at 30 µM: HCT-116, at 30 μM; for IC50 / IC90: HCT-116. The method in brief: (§1)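 Cells rested 4 h after plating, then exposed to graded compound concentrations in 0.5% (v/v) DMSO for four to six days (cell-type dependent) at 37° C, 5% CO2. Viability was read by MTT (0.2 mg/mL final, 4 h at 37° C), with DMSO-solubilized formazan measured at 540 nm.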

Assay [5] deals with SW-480. Briefly: Inhibition of cell growth, MTT assay, SW-480. Conditions: Homo sapiens, SW480, SW-480, MTT assay. In kind it is cell-based. The procedure:
Inhibition of cell growth was measured using the tetrazolium salt assay, which is based on the ability of viable cells to reduce 3-(4,5-dimethylthiazol-2-yl)-2,5-[2H]-diphenyltetrazolium bromide (MTT) to formazan (Mossman, Journal of Immunological Methods, vol. 65 (1983), pp. 55-58). The water-insoluble purple formazan product was then detected spectrophotometrically. Various cell lines (HCT-116, Saos-2, U2-OS, SW480, COLO-205, RXF-393, M14, MDA-MB-468, and MCF7) were grown in 96-well plates. Cells were plated in the appropriate medium at a volume of 135 μl/well in either McCoy's 5A Medium (for Saos-2, U2-OS, SW480, and HCT-116 cells), RPMI (for COLO-205, RXF-393, M14 cells), or Minimum Essential Medium Eagle (for MDA-MB-468 and MCF7 cells). Plates were incubated for four hours before addition of inhibitor compounds. Different concentrations of inhibitor compounds were added in 0.5% (v/v) dimethylsulfoxide (15 μL/well), and cells were incubated at 37° C. (5% CO2) for four to six days (depending on cell type). At the end of the incubation, MTT was added to a final concentration of 0.2 mg/mL, and cells were incubated for 4 hours more at 37° C. After centrifugation of the plates and removal of medium, the absorbance of the formazan (solubilized in dimethylsulfoxide) was measured at 540 nm. […] All results were compared to control cells treated only with 0.5% (v/v) dimethylsulfoxide.

Assay [6] relates to U2-OS. Put plainly: Inhibition of cell growth, MTT assay, U2-OS. In kind it is cell-based. Conditions: Homo sapiens, U2OS. The procedure, abridged:
as §1

Assay [7] relates to Saos-2. Put plainly: Inhibition of cell growth, MTT assay, Saos-2. The class given is cell-based. Conditions: Homo sapiens; Saos-2, MTT assay. The procedure, abridged: as §1

Each structure is given as a SMILES string. Structures can show the parent of a compound that is named as a salt.

T3 sequence (P06493 whole entry): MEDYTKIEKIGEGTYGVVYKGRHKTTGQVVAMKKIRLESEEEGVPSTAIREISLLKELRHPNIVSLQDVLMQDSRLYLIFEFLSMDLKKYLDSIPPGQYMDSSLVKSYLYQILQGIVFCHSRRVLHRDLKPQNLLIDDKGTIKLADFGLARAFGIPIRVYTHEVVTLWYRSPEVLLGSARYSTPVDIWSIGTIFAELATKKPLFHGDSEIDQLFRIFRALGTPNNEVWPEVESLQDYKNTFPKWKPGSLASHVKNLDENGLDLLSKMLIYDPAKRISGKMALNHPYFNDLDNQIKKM
T3 sequence (P14635 whole entry partner): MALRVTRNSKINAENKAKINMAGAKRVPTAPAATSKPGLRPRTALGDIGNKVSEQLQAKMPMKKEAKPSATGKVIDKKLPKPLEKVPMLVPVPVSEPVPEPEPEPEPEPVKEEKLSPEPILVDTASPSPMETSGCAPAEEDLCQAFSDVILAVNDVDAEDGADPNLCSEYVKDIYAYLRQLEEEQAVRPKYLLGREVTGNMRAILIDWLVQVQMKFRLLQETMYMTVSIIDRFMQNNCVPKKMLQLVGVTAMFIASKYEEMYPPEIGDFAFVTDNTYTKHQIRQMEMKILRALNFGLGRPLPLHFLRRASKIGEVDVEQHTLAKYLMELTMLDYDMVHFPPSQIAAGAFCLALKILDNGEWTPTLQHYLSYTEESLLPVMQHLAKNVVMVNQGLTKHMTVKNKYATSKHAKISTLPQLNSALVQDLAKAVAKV
T1 sequence (P11802 whole entry): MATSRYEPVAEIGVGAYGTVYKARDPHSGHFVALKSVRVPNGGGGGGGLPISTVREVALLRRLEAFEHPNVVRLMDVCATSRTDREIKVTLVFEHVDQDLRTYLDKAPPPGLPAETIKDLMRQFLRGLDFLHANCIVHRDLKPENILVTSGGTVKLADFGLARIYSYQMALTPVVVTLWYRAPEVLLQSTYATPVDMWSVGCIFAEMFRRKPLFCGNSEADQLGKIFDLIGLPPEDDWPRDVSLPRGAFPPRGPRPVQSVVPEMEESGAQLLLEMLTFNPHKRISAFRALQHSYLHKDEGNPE
T1 sequence (P30281 whole entry partner): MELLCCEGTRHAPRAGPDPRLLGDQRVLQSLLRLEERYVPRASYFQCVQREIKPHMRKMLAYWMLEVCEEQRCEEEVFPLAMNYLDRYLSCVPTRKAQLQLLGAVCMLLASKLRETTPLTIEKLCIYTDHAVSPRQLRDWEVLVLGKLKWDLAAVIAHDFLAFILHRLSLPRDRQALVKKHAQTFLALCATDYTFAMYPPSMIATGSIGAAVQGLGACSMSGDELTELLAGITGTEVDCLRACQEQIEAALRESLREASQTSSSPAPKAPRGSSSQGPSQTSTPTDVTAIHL

Turning to `Nc1nc(Nc2cccnc2)sc1C(=O)c1ccccc1` [A(3), [4-Amino-2-(pyridin-3-ylamino)-thiazol-5-yl]-phenyl-methanone], the Ki in assay [1] came to 2000 nM; in assay [2] it was 6100 nM; in assay [3], 3500 nM. Moreover, the inhibition at 30 µM in assay [4] amounted to 41%; in assay [5], 15%.

For `Nc1nc(Nc2ccccc2)sc1C(=O)c1ccccn1` [A(4), (4-Amino-2-phenylamino-thiazol-5-yl)-pyridin-2-yl-methanone], the results for the Ki in assay [1], in assay [2] and in assay [3] were 2000 nM, 3100 nM and 2700 nM, respectively. For the same compound, the inhibition at 30 µM amounted to 29% in assay [4] and 66% in assay [5]. Also, in assay [5] (at 10 μM), the inhibition at 10 µM was 0%.

In the case of `CCOC(=O)c1ccc(Nc2nc(N)c(C(=O)c3ccccc3[N+](=O)[O-])s2)cc1` [A(5), Ethyl 4-[4-Amino-5-(2-nitro-benzoyl)-thiazol-2-ylamino]-benzoate], the Ki in assay [1] is 97 nM; in assay [2], 690 nM; in assay [3], 163 nM. The values for the IC50 in assay [4] and in assay [5] were 26 µM and 1.7 µM, respectively. Further, at 30 µM the inhibition in assay [4] was 85%. The same compound returned a 90% effect concentration (IC90) in assay [5] of 3 µM.

On to `Cc1nc2ccc(Nc3nc(N)c(C(=O)c4ccccc4[N+](=O)[O-])s3)cc2[nH]1` [A(6), [4-Amino-2-(2-methyl-1H-benzoimidazol-6-ylamino)-thiazol-5-yl]-(2-nitro-phenyl)-methanone], for which the results for the Ki in assay [1], in assay [2] and in assay [3] were 150 nM, 292 nM and 52 nM, respectively. Further, the IC50 in assay [4] stood at 20 µM; in assay [5] it was 5 µM. Moreover, the concentration for an effect of 90% (IC90) in assay [4] amounted to 30 µM; in assay [5], 15 µM.

For the compound `Nc1nc(Nc2ccc3nc[nH]c3c2)sc1C(=O)c1ccccc1[N+](=O)[O-]` [A(9), [4-Amino-2-(1H-benzoimidazol-6-yl-amino)-thiazol-5-yl]-(2-nitro-phenyl)-methanone], the Ki is 100 nM in assay [1], 230 nM in assay [2] and 53 nM in assay [3]. Also, the figures for the half-maximal inhibitory concentration (IC50) in assay [4] and in assay [5] were 20 µM and 4 µM, respectively. Further, the figures for the IC90 in assay [4] and in assay [5] were 30 µM and 10 µM, respectively.

Take `CN(C)c1ccc(Nc2nc(N)c(C(=O)c3ccccc3[N+](=O)[O-])s2)cc1` [C(4), [4-Amino-2-(4-dimethylamino-phenylamino)-thiazol-5-yl]-(2-nitro-phenyl)-methanone]: the Ki in assay [1] came to 95 nM; in assay [2], 810 nM; in assay [3], 90 nM. Moreover, the IC50 in assay [4] was 0.7 µM; in assay [5], 0.4 µM. The IC90 in assay [4] worked out at 30 µM; in assay [5] it was 3 µM.

Regarding `Nc1nc(NCCc2ccccc2)sc1C(=O)c1ccccc1[N+](=O)[O-]` [C(5), (4-Amino-2-phenethylamino-thiazol-5-yl)-(2-nitro-phenyl)-methanone], the Ki amounted to 140 nM in assay [1], 780 nM in assay [2] and 293 nM in assay [3]. For the same compound, the IC50 in assay [4] is 6 µM; in assay [5], 3 µM. Also, the figures for the IC90 in assay [4] and in assay [5] were 25 µM and 9 µM, respectively.

For `Nc1nc(Nc2ccc(C(=O)O)cc2)sc1C(=O)c1ccccc1[N+](=O)[O-]` [E(1), 4-[4-Amino-5-(2-nitro-benzoyl)-thiazol-2-ylamino]-benzoic Acid], the Ki came out at 420 nM in assay [1], 320 nM in assay [2] and 30 nM in assay [3]. The compound further had an inhibition at 10 µM in assay [4] (HCT-116, at 10 μM) of 17%. The figures for the inhibition at 30 µM in assay [4] and in assay [5] were 17% and 23%, respectively.

Regarding `Nc1ccc(Cl)c(C(=O)c2sc(Nc3ccc(N4CCNCC4)cc3)nc2N)c1Cl` [H(2), (3-Amino-2,6-dichloro-phenyl)-[4-amino-2-(4-piperazin-1-yl-phenylamino)-thiazol-5-yl]-methanone Trihydrochloride], the figures for the Ki in assay [1], in assay [2] and in assay [3] were 3.6 nM, 474 nM and 361 nM, respectively. For the same compound, the values for the IC50 in assay [4], in assay [6] and in assay [7] were 15 µM, 16 µM and 13000 nM, respectively. The IC90 was found to be 25 µM in assay [4], 21 µM in assay [6] and 22 µM in assay [7].

With `Nc1nc(Nc2ccc(N3CCNCC3)cc2)sc1C(=O)c1c(Cl)cccc1Cl` [H(3), [4-Amino-2-(4-piperazin-1-yl-phenylamino)-thiazol-5-yl]-(2,6-dichloro-phenyl)-methanone], the Ki in assay [1] was 2.4 nM; in assay [2], 405 nM; in assay [3] it was 472 nM. Besides, the IC50 turned out to be 0.88 µM in assay [4], 3.5 µM in assay [6] and 1800 nM in assay [7]. Moreover, the IC90 in assay [4] was determined as 2.4 µM; in assay [6], 5.8 µM; in assay [7], 3 µM.

For the compound `CN(C)c1ccc(Nc2nc(N)c(C(=O)c3ccccn3)s2)cc1` [I(19)], the values for the Ki in assay [1] and in assay [2] were 1600 nM and 4800 nM, respectively. Besides, the results for the inhibition at 30 µM in assay [4] and in assay [5] were 16% and 58%, respectively. In assay [5], half-maximal inhibition (IC50) was put at 22 µM.

For `Nc1nc(Nc2ccc(N3CCNCC3)cc2)sc1C(=O)c1c(Cl)cc(Cl)cc1Cl` [J(1), [4-Amino-2-(4-piperazin-1-yl-phenylamino)-thiazol-5-yl]-(2,4,6-trichloro-phenyl)-methanone], the Ki in assay [1] is 2.3 nM; in assay [2], 452 nM; in assay [3] it was 732 nM. In addition, the IC50 came to 1.3 µM in assay [4], 3.5 µM in assay [6] and 1000 nM in assay [7]. Moreover, the 90% effect concentration (IC90) in assay [4] is 3 µM; in assay [6], 5.9 µM; in assay [7], 5.9 µM.

As for `C[C@@H]1CN(c2ccc(Nc3nc(N)c(C(=O)c4c(F)cccc4F)s3)cc2)C[C@H](C)N1` [J(5), {4-Amino-2-[4-(cis-3,5-dimethyl-piperazin-1-yl)-phenylamino]-thiazol-5-yl}-(2,6-difluoro-phenyl)-methanone], the figures for the Ki in assay [1], in assay [2] and in assay [3] were 6.3 nM, 331 nM and 760 nM, respectively. Further, the IC50 in assay [4] is 0.7 µM; in assay [6] it was 1 µM; in assay [7], 900 nM. Moreover, the figures for the IC90 in assay [4], in assay [6] and in assay [7] were 1.6 µM, 1.8 µM and 1.5 µM, respectively.

These data come from patent US6569878B1, “Substituted 4-amino-thiazol-2-yl compounds as cyclin-dependent kinase inhibitors” (Agouron Pharmaceuticals Inc., priority 1997, dated 2003).
